US20230079819A1, “COMPOUNDS AND USES THEREOF” (Foghorn Therapeutics Inc., priority 2019, published 2023)
Like-named read-outs stand apart in the source and are kept apart here.

Experiments:
BRM = target: T1, BRM (Homo sapiens, UniProt P51531); test: ATPase catalytic activity of BRM, ADP-Glo in vitro biochemical assay; settings: 30 nM BRM, 400 μM ATP
T1 construct: made in house; host or cells: High Five insect cells

BRG-1 = target: T2, BRG-1 (Homo sapiens, UniProt P51532); test: ATPase catalytic activity of BRG-1, ADP-Glo in vitro biochemical assay; settings: 30 nM BRG-1, 400 μM ATP
T2 construct: made in house; host or cells: High Five insect cells

[1] = ATPase catalytic activity, read-out: BRM IP50 (μM)*
[2] = ATPase catalytic activity, read-out: BRG1 IP50 (μM)*
[3] = ATPase catalytic activity, read-out: BRM IP50
[4] = ATPase catalytic activity, read-out: BRG1 IP50

T1 sequence (P51531 whole entry): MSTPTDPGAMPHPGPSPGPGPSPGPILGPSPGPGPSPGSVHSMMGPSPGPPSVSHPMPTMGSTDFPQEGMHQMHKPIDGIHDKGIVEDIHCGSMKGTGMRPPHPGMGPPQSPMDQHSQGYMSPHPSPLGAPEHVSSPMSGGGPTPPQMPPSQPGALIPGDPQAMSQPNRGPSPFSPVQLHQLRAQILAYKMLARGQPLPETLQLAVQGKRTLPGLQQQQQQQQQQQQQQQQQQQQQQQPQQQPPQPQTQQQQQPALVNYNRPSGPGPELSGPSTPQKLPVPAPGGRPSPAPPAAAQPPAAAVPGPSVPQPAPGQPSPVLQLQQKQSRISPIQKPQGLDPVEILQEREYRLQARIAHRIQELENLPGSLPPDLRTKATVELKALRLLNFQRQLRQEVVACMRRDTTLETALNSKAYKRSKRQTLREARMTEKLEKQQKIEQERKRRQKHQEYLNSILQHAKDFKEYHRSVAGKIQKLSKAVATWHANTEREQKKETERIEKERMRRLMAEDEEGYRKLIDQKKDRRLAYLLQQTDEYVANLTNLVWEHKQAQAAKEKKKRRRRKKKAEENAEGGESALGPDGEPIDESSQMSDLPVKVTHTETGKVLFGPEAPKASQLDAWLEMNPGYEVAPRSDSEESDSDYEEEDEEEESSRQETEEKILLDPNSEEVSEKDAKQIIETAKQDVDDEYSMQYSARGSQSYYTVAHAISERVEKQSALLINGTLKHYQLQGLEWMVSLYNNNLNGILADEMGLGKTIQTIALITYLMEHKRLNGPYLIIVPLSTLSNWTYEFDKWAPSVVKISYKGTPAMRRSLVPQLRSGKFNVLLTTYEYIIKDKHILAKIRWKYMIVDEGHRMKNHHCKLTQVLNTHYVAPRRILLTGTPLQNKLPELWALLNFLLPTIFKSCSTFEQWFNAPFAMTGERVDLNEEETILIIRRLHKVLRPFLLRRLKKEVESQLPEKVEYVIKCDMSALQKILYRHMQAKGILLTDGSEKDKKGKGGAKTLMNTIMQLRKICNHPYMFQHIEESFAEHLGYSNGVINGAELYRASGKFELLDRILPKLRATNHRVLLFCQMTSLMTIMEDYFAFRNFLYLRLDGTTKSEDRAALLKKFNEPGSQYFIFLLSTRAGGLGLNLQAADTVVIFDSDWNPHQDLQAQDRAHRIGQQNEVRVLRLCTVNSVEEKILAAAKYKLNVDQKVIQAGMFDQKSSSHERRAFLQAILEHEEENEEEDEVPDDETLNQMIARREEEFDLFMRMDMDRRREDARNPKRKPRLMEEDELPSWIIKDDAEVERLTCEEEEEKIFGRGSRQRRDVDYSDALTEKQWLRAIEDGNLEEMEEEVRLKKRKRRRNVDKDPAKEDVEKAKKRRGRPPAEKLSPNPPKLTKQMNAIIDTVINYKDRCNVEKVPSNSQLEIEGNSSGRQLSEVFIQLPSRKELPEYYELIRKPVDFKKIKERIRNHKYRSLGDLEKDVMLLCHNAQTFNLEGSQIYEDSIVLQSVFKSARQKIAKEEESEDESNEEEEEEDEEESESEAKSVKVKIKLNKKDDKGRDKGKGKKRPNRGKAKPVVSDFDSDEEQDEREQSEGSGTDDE
T2 sequence (P51532 whole entry): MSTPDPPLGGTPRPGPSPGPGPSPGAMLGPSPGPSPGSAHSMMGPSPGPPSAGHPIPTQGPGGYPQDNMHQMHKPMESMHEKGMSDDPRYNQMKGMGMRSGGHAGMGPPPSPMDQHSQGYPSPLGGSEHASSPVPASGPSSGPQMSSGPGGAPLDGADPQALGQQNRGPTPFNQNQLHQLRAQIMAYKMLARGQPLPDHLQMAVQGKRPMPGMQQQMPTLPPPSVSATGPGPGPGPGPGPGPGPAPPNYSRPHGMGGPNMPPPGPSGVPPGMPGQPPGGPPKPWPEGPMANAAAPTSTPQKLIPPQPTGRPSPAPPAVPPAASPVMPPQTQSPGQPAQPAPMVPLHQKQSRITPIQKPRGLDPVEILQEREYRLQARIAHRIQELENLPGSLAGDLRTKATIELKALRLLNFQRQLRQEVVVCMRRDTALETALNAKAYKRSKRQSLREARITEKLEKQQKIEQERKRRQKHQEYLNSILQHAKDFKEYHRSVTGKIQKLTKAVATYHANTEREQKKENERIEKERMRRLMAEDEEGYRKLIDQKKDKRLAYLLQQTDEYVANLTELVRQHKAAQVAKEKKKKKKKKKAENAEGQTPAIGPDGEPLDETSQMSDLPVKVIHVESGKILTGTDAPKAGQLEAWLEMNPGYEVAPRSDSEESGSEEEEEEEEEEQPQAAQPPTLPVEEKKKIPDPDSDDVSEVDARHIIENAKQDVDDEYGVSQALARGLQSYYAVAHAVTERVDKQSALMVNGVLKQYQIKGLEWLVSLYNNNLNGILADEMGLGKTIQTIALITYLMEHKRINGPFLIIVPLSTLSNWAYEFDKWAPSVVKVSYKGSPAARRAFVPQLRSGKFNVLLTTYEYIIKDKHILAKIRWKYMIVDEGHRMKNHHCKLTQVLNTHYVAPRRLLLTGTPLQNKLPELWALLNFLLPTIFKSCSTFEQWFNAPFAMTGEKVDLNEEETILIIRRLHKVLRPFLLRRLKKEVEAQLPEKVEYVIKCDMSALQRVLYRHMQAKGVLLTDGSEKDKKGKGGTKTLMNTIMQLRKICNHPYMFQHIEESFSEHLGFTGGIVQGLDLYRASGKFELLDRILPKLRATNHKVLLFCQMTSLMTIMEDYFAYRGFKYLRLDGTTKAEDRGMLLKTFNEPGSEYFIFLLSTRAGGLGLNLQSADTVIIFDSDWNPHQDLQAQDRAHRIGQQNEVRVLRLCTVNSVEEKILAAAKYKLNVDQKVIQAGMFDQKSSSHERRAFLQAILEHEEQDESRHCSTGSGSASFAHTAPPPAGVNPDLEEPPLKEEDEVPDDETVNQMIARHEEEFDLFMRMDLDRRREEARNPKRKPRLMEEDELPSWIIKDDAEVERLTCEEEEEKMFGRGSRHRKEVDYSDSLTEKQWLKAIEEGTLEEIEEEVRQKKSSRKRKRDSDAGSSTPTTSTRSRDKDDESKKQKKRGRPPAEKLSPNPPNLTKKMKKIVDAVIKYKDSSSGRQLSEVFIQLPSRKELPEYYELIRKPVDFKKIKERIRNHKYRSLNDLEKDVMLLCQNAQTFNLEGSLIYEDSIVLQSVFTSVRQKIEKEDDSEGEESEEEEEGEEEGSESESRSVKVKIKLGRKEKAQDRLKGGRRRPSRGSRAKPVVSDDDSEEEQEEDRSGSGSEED

| SMILES | IC50 (BRM; [1]) [µM] | IC50 (BRG-1; [2]) [µM] | IC50 (BRM; [3]) [µM] | IC50 (BRG-1; [4]) [µM] | also measured |
| --- | --- | --- | --- | --- | --- |
| COC[C@H](NC(=O)c1ccn(C2(C)COC2)c1)C(=O)Nc1nc(-c2ccc(F)c(N3C[C@@H](C)O[C@@H](C)C3)n2)cs1 [Compound 376] | > 0.01 | > 0.01 | – | – | – |
| COC[C@H](NC(=O)c1ccn(S(C)(=O)=O)c1)C(=O)Nc1nc(-c2ccc3ccn(C)c(=O)c3c2)cs1 [Compound 430] | – | – | < 0.01 | < 0.01 | – |
| C[C@H](NC(=O)c1ccn(S(C)(=O)=O)c1)C(=O)Nc1nc(-c2cccc(N3CCC(O)CC3)c2)cs1 [Compound 370] | > 0.01 | > 0.01 | – | – | – |
| N#CC1(n2cnc(C(=O)NCC(=O)Nc3nc(-c4cc(F)c5c(c4)OCC5)cs3)c2)CC1 [Compound 788] | – | – | – | – | IC50 (BRM; read-out: BRM IP50): > 0.1 µM; IC50 (BRG-1; read-out: BRG1 IP50): > 0.1 µM |
| CC1(n2ccc(C(=O)NCC(=O)Nc3nc(-c4cccc(N5CCOCC5)n4)cs3)c2)COC1 [Compound 341] | > 0.01 | > 0.1 | – | – | – |
| CC(C)(C)c1cnc(C(=O)NCC(=O)Nc2nc(-c3cccc(N4CCC4)c3)cs2)s1 [Compound 820] | – | – | – | – | IC50 (BRM; read-out: BRM IP50): > 0.1 µM; IC50 (BRG-1; read-out: BRG1 IP50): > 0.1 µM |
| C[C@@H]1CN(c2nccc(-c3csc(NC(=O)CNC(=O)c4ccn(S(C)(=O)=O)c4)n3)n2)C[C@H](C)O1 [Compound 325] | < 0.01 | < 0.01 | – | – | – |
| C[C@@H]1CN(c2cccc(-c3csc(NC(=O)CNC(=O)c4cn(C(C)(C)C#N)cn4)n3)n2)C[C@H](C)O1 [Compound 819] | – | – | – | – | IC50 (BRM; read-out: BRM IP50): > 0.01 µM; IC50 (BRG-1; read-out: BRG1 IP50): > 0.01 µM |
| Cc1nccc(-c2cccc(-c3csc(NC(=O)CNC(=O)c4ccn(C(C)(C)C)c4)n3)c2)n1 [Compound 23, 1-(tert-butyl)-N-(2-((4-(3-(2-methylpyrimidin-4-yl)phenyl)thiazol-2-yl)amino)-2-oxoethyl)-1H-pyrrole-3-carboxamide] | < 0.01 | < 0.01 | – | – | – |
| CN1CCCCc2ccc(-c3csc(NC(=O)CNC(=O)c4ccn(S(C)(=O)=O)c4)n3)cc21 [Compound 273] | > 0.01 | > 0.1 | – | – | – |
| CS(=O)(=O)n1ccc(C(=O)NCC(=O)Nc2nc(-c3cccc(N4CC(O)(C(F)(F)F)C4)c3)cs2)c1 [Compound 176] | > 0.1 | > 0.1 | – | – | – |
| CN(C)S(=O)(=O)n1ccc(C(=O)NCC(=O)Nc2nc(-c3cccc(-c4ccncc4)c3)cs2)c1 [Compound 47, 1-(N,N-dimethylsulfamoyl)-N-(2-oxo-2-((4-(3-(pyridin-4-yl)phenyl)thiazol-2-yl)amino)ethyl)-1H-pyrrole-3-carboxamide] | > 0.01 | > 0.01 | – | – | – |
| CC(C)(C)n1ccc(C(=O)NCC(=O)Nc2nc(-c3cccc(CO[C@H]4CCOC4)c3)cs2)c1 [Compound 135, (S)-1-(tert-butyl)-N-(2-oxo-2-((4-(3-(((tetrahydrofuran-3-yl)oxy)methyl)phenyl)thiazol-2-yl)amino)ethyl)-1H-pyrrole-3-carboxamide] | > 0.01 | > 0.01 | – | – | – |
| Cn1nc(-c2cccc(-c3csc(NC(=O)CNC(=O)c4ccn(C(C)(C)C)c4)n3)c2)cc1CO [Compound 26, 1-(tert-butyl)-N-(2-((4-(3-(5-(hydroxymethyl)-1-methyl-1H-pyrazol-3-yl)phenyl)thiazol-2-yl)amino)-2-oxoethyl)-1H-pyrrole-3-carboxamide] | > 0.01 | > 0.01 | – | – | – |
| CO[C@@H]1CCCN(c2cccc(-c3csc(NC(=O)CNC(=O)c4ccn(S(C)(=O)=O)c4)n3)c2)C1 [Compound 161] | > 0.01 | > 0.01 | – | – | – |
| CC(C)(CN)n1ccc(C(=O)NCC(=O)Nc2nc(-c3cccc(-c4ccncc4)c3)cs2)c1 [Compound 42, 1-(1-amino-2-methylpropan-2-yl)-N-(2-oxo-2-((4-(3-(pyridin-4-yl)phenyl)thiazol-2-yl)amino)ethyl)-1H-pyrrole-3-carboxamide] | > 0.01 | > 0.1 | – | – | – |
| C[C@H](NC(=O)c1ccn(S(C)(=O)=O)c1)C(=O)Nc1nc(-c2cccc(N3CC(O)C3)c2)cs1 [Compound 365] | > 0.01 | > 0.01 | – | – | – |
| CC(C)(C)n1ccc(C(=O)NCC(=O)Nc2nc(-c3ccc4cncnc4c3)cs2)c1 [Compound 142] | > 0.1 | > 0.1 | – | – | – |

| SMILES | IC50 (BRM; [1]) [µM] | IC50 (BRG-1; [2]) [µM] | IC50 (BRM; [3]) [µM] | IC50 (BRG-1; [4]) [µM] | also measured |
| --- | --- | --- | --- | --- | --- |
| C[C@@H]1CN(c2cccc(-c3csc(NC(=O)CNC(=O)c4ncc(C(C)(C)C)o4)n3)n2)C[C@H](C)O1 [Compound 827] | – | – | – | – | IC50 (BRM; read-out: BRM IP50): < 0.01 µM; IC50 (BRG-1; read-out: BRG1 IP50): > 0.01 µM |
| C[C@@H]1CN(c2cccc(-c3csc(NC(=O)CNC(=O)c4ccn(C(C)(C)C)n4)n3)n2)C[C@H](C)O1 [Compound 344] | > 0.01 | > 0.01 | – | – | – |
| CC[C@H]1CN(c2cccc(-c3csc(NC(=O)CNC(=O)c4ccn(S(C)(=O)=O)c4)n3)c2)CCO1 [Compound 236] | > 0.01 | > 0.01 | – | – | – |
| C[C@@H]1CN(c2cccc(-c3csc(NC(=O)CNC(=O)c4ccn(C5(C#N)CC5)c4)n3)n2)C[C@H](C)O1 [Compound 458] | – | – | < 0.01 | > 0.01 | – |
| C[C@@H]1CN(c2cccc(-c3csc(NC(=O)CNC(=O)c4ccn(C5(C#N)COC5)c4)n3)n2)C[C@H](C)O1 [Compound 602] | – | – | < 0.01 | < 0.01 | – |
| COc1cnc(C(=O)NCC(=O)Nc2nc(-c3cccc(N4C[C@@H](C)O[C@@H](C)C4)n3)cs2)o1 [Compound 824] | – | – | – | – | IC50 (BRM; read-out: BRM IP50): > 0.1 µM; IC50 (BRG-1; read-out: BRG1 IP50): > 0.1 µM |
| N#CC1(n2ccc(C(=O)NCC(=O)Nc3nc(-c4cccc(N5CCC5)c4)cs3)c2)CC1 [Compound 476] | – | – | > 0.01 | > 0.01 | – |
| Cc1cncc(-c2cccc(-c3csc(NC(=O)CNC(=O)c4ccn(C5(C)COC5)c4)n3)n2)n1 [Compound 523, 1-(3-methyloxetan-3-yl)-N-[2-[[4-[6-(6-methylpyrazin-2-yl)-2-pyridyl]thiazol-2-yl]amino]-2-oxo-ethyl]pyrrole-3-carboxamide] | – | – | > 0.01 | > 0.01 | – |
| C[C@@H]1CN(c2cccc(-c3csc(NC(=O)CNC(=O)c4ncc(C(C)(C)C)o4)n3)c2)C[C@H](C)O1 [Compound 823] | – | – | – | – | IC50 (BRM; read-out: BRM IP50): < 0.01 µM; IC50 (BRG-1; read-out: BRG1 IP50): > 0.01 µM |
| CS(=O)(=O)n1ccc(C(=O)NCC(=O)Nc2nc(-c3cccc([C@H]4CC4(F)F)n3)cs2)c1 [Compound 609] | – | – | > 0.01 | > 0.01 | – |
| CC(C)(C)n1ccc(C(=O)NCC(=O)Nc2nc(-c3cccc(C4(CO)CC4)n3)cs2)c1 [Compound 495] | – | – | > 0.01 | > 0.1 | – |
| CC(C)(C)n1ccc(C(=O)NCC(=O)Nc2nc(-c3cccc(OCC4COC4)c3)cs2)c1 [Compound 122, 1-(tert-butyl)-N-(2-((4-(3-(oxetan-3-ylmethoxy)phenyl)thiazol-2-yl)amino)-2-oxoethyl)-1H-pyrrole-3-carboxamide] | > 0.01 | > 0.01 | – | – | – |
| Cc1cccc(-c2cccc(-c3csc(NC(=O)CNC(=O)c4ccn(S(C)(=O)=O)c4)n3)c2)n1 [Compound 407] | – | – | < 0.01 | < 0.01 | – |
| CS(=O)(=O)n1ccc(C(=O)NCC(=O)Nc2nc(-c3cccc(N4CCC[C@@H](F)C4)c3)cs2)c1 [Compound 213] | > 0.01 | > 0.01 | – | – | – |
| COC(=O)N1CCC[C@H](c2csc(NC(=O)CNC(=O)c3ccn(C(C)(C)C)c3)n2)C1 [Compound 581] | – | – | > 0.1 | > 0.1 | – |
| Cn1ccc(-c2cccc(-c3csc(NC(=O)CNC(=O)c4ccn(C5(C)COC5)c4)n3)c2)n1 [Compound 144] | > 0.01 | > 0.01 | – | – | – |
| COC[C@H](NC(=O)c1ccn(S(C)(=O)=O)c1)C(=O)Nc1nc(-c2cccc([C@@H]3CC3(F)F)c2)cs1 [Compound 598] | – | – | > 0.01 | > 0.01 | – |
| COC[C@H](NC(=O)c1ccn(S(C)(=O)=O)c1)C(=O)Nc1nc(-c2cccc(-c3cc(C)nc(C)n3)c2)cs1 [Compound 358, N-[(1S)-2-[[4-[3-(2,6-dimethylpyrimidin-4-yl)phenyl]thiazol-2-yl]amino]-1-(methoxymethyl)-2-oxo-ethyl]-1-methylsulfonyl-pyrrole-3-carboxamide] | < 0.01 | < 0.01 | – | – | – |

The next lines start with results.

| IC50 (BRM; [1]) [µM] | IC50 (BRG-1; [2]) [µM] | IC50 (BRM; [3]) [µM] | IC50 (BRG-1; [4]) [µM] | SMILES | also measured |
| --- | --- | --- | --- | --- | --- |
| – | – | > 0.01 | > 0.1 | COC[C@H](NC(=O)c1ccn(S(C)(=O)=O)c1)C(=O)Nc1nc(-c2cccc(N3CC[C@@H](C(F)F)C3)n2)cs1 [Compound 691] | – |
| – | – | < 0.01 | < 0.01 | COC[C@H](NC(=O)c1ccn(S(C)(=O)=O)c1)C(=O)Nc1nc(-c2cc(C)cc(N3C[C@@H](C)O[C@@H](C)C3)n2)cs1 [Compound 734] | – |
| – | – | > 0.1 | > 0.1 | CC(C)(C)n1ccc(C(=O)NCC(=O)Nc2nc(-c3cccc(N4C[C@@H]5[C@@H](CF)[C@@H]5C4)n3)cs2)c1 [Compound 689] | – |
| – | – | > 0.01 | > 0.01 | CC(C)(C)n1ccc(C(=O)NCC(=O)Nc2nc(-c3cccc(C45CCOCC4C5)c3)cs2)c1 (stereo not shown) [Compound 744] | – |
| – | – | < 0.01 | > 0.01 | C[C@@H]1CN(c2cncc(-c3csc(NC(=O)CNC(=O)c4ccn(S(C)(=O)=O)c4)n3)n2)C[C@H](C)O1 [Compound 693] | – |
| – | – | > 0.01 | > 0.01 | CC(C)(C)n1ccc(C(=O)NCC(=O)Nc2nc(-c3cccc(N4CCC(F)(F)C4)n3)cs2)c1 [Compound 679] | – |
| – | – | > 0.01 | > 0.01 | CCCOC(=O)N1CCC[C@H](c2csc(NC(=O)CNC(=O)c3ccn(S(C)(=O)=O)c3)n2)C1 [Compound 771] | – |
| – | – | < 0.01 | < 0.01 | COC[C@H](NC(=O)c1ccn(S(C)(=O)=O)c1)C(=O)Nc1nc(-c2cc(F)cc(OC)c2)cs1 [Compound 726] | – |
| – | – | > 0.1 | > 0.1 | CC(C)(C)n1ccc(C(=O)NCC(=O)Nc2nc(-c3cccc(N4C[C@H]5CC(F)(F)[C@H]5C4)n3)cs2)c1 (racemic) [Compound 703] | – |
| – | – | > 0.1 | > 0.1 | CN[C@H]1CCN(c2cccc(-c3csc(NC(=O)CNC(=O)c4ccn(S(C)(=O)=O)c4)n3)n2)CC1(F)F [Compound 760] | – |
| – | – | > 0.1 | > 0.1 | CC(C)(C)n1ccc(C(=O)NCC(=O)Nc2nc(-c3cccc(N4CC5(COC5)C4)n3)cs2)c1 [Compound 644] | – |
